Assay results from patent US20070185172A1, “Organic compounds” (priority 2004, published 2007).

What was measured:
Recombinant human GR = molecular target: T1, Recombinant human GR (Homo sapiens, UniProt P04150); test: Glucocorticoid receptor binding, fluorescence polarisation with Fluormone-GS1; conditions: Fluormone-GS1 ligand, 1 hr at room temperature, Ki calculated from IC50 using the Cheng-Prussoff equation
T1 construct: purchased Panvera (Madison, Wis., USA); host or cells: baculovirus-infected insect Sf-9 cells
T1 sequence (P04150 1-777): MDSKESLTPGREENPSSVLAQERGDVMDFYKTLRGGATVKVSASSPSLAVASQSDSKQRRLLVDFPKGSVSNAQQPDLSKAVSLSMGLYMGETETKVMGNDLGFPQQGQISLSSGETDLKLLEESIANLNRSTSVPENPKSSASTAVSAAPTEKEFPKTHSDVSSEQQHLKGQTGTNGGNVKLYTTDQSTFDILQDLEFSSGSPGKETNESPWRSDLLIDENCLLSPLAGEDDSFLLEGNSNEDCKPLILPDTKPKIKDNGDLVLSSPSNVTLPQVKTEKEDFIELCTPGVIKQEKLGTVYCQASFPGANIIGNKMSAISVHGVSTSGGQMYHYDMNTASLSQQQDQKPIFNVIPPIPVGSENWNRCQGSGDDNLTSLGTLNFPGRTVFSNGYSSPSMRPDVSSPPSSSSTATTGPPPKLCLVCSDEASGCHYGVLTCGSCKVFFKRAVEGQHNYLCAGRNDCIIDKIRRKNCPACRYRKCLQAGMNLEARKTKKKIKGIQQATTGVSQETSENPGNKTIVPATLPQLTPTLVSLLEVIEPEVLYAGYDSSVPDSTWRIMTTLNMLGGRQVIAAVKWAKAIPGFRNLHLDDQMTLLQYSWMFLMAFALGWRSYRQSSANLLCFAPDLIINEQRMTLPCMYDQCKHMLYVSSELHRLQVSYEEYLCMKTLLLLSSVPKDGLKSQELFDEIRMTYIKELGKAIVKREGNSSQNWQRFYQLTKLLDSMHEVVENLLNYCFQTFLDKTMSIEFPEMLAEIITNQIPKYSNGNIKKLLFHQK
Experimental: Binding to the glucocorticoid receptor may be measured in the following assay:
Recombinant human GR expressed in baculovirus-infected insect Sf-9 cells is obtained from Panvera (Madison, Wis., USA), as is GR assay buffer and the proprietary fluorescent ligand Fluormone™-GS1 (200 nM methanol solution). The assay is conducted in 384 well plates by sequential addition of a serially diluted dimethylsulfoxide solution of test compound in water (2 μl), Fluormone™-GS1 (2.2 nM in GR assay buffer, 10 μl) and GR solution (8.8 nM in GR assay buffer, 10 μl). The assay is incubated in the dark at room temperature for 1 hr, prior to fluorescence polarisation measurement using an analyst multiwell instrument with 485 nm excitation and 530 nm emission filters. The concentration of test compound resulting in half-maximum shift in polarisation gives the IC50. Curves are fitted using Origin™ software and Ki values were calculated using the Cheng-Prussoff equation. Compounds of Examples 1, 2, 3, and 4 have Ki values of 0.5, 1.4, 0.4 and 0.2 nM respectively in this assay.

[1] = tested on: TNF-alpha synthesis and release in human macrophage cell line U937; test: Inhibition of TNF-alpha synthesis and release in LPS-stimulated differentiated U937 cells; type: cell-based; conditions: U-937, PMA-differentiated U937 cells, 10 ng/ml LPS, 24 hours, TNFα by sandwich ELISA
Experimental: Inhibition of TNF-alpha synthesis and release may be measured by the following assay:
Human macrophage cell line U937 is obtained from American Type Culture Collection (Rockville Md.) and cultured in RPMI 1640 (Gibco UK) supplemented with 10% FCS (Gibco UK). Cell density is adjusted to 4×10^5 cells/ml and the cells are differentiated by adding phorbal myristate acetate (PMA, 20 ng/ml) for 4 hours. The PMA is removed by washing and the adherent cells are incubated for a further 48 hours at 37° C. in a humidified incubator with 5% CO2. Differentiated U937 cells are removed using cell dissociation buffer (Gibco UK) and the cell density is adjusted to 1×10^6 cells/ml. 100 μl of the cell suspension is placed in 96 well culture plates and 50 μl of either medium or compound at the appropriate concentration in dimethylsulfoxide are added. After a preincubation of 20 minutes at 37° C., the cells are stimulated with 10 ng/ml lipopolysaccharide (LPS, Sigma) and the supernatants are harvested after 24 hours of incubation at 37° C. in a humidified incubator with 5% CO2. Concentration of TNFα in the supernatants is determined by sandwich ELISA using two monoclonal antibodies recognising different epitopes of the cytokine (Pharmingen UK). Binding of the second antibody is analysed by stepwise incubation with streptavidin alkaline phosphatase conjugate (Sigma UK) and 4-nitrophenylphosphate disodium salt. Optical density is measured at 405 nm and cytokine concentration calculated based on results from serial diluations of standard recombinant TNFα. Curves are fitted and IC50 values calculated using Origin™ software.

**Q.** How did the Ki (Recombinant human GR) turn out when `CCCN1C[C@@H]2CC3C4CCC5=CC(=O)C=C[C@]5(C)C4[C@@H](O)C[C@]3(C)[C@]2(C(=O)CO)O1` (stereo partly drawn) [Example 1, (4aR,5S,6aS,6bR,9aS)-5-Hydroxy-6b-(2-hydroxy-acetyl)-4a,6a-dimethyl-8-propyl-4a,4b,5,6,6a,6b,8,9,9a,10,10a,10b,11,12-tetradecahydro-7-oxa-8-pentaleno[2,1-a]phenanthren-2-one] was run?
**A.** 0.5 nM

**Q.** What about the IC50 [1] of the same molecule?
**A.** 1.16 nM

**Q.** Which Ki (Recombinant human GR) does the source give for `CN1C[C@@H]2CC3C4CCC5=CC(=O)C=C[C@]5(C)C4[C@@H](O)C[C@]3(C)[C@]2(C(=O)CO)O1` (stereo partly drawn) [Example 2, (4aR,5S,6aS,6bR,9aS)-5-Hydroxy-6b-(2-hydroxy-acetyl)-4a,6a,8-trimethyl-4a,4b,5,6,6a,6b, 8,9,9a,10a,10b,11,12-tetradecahydro-7-oxa-8-aza-pentaleno[2,1-a]phenanthren-2-one] here?
**A.** 1.4 nM

**Q.** And the IC50 [1]?
**A.** 4.95 nM

**Q.** With `CCCCN1C[C@@H]2CC3C4CCC5=CC(=O)C=C[C@]5(C)C4[C@@H](O)C[C@]3(C)[C@]2(C(=O)CO)O1` (stereo partly drawn) [Example 3, (4aR,5S,6aS,6bR,9aS)-8-Butyl-5-hydroxy-6b-(2-hydroxy-acetyl)-4a,6a-dimethyl-4a,4b,5,6,6a,6b,8,9,9a,10,10a,10b,11,12-tetradecahydro-7-oxa-8-aza-pentaleno[2,1-a]phenanthren-2-one] as the molecule, how does the Ki (Recombinant human GR) read?
**A.** 0.4 nM

**Q.** What about the IC50 [1] of the same molecule?
**A.** 0.89 nM

**Q.** Which Ki (Recombinant human GR) does the source give for `C[C@]12C=CC(=O)C=C1CCC1C2[C@@H](O)C[C@@]2(C)C1C[C@H]1CN(C3CCCCC3)O[C@]12C(=O)CO` (stereo partly drawn) [Example 4, (4aR,5S,6aS,6bR,9aS)-8-Cyclohexyl-5-hydroxy-6b-(2-hydroxy-acetyl)-4a,6a-dimethyl-4a,4b, 5,6,6a,6b,8,9,9a,10,10a,10b,11,12-tetradecahydro-7-oxa-8-aza-pentaleno[2,1-a]-phenan-thren-2-one] here?
**A.** 0.2 nM

**Q.** What about the IC50 [1] of the same molecule?
**A.** 3.57 nM
